Assay results: US20210196731A1, “COMPOSITIONS AND METHODS FOR TREATING OCULAR INFLAMMATION AND OCULAR SCARRING” (priority 2018, published 2021)

How the values were obtained:
Format in all cases: cell-based, human
HTCFs [1] = test: Collagen Contraction Assay II (dose dependence)
Protocol: (§2) The cell-collagen solution was pipetted gently to ensure homogenous distribution of HTCFs while avoiding the production of air bubbles, then 500 ul were pipetted into each well of a 24-well tray. Collagen constructs were allowed to polymerize at 37 C for 45 minutes before adding low serum culture media containing DMEM, 2% Fetal Bovine Serum (FBS), 1% penicillin/streptomycin (P/S).
Tension was allowed to build up within the tethered matrix at 37 C and 5% CO2 for 72 hours before a sterile spatula was used to detach each collagen construct from the edges of the culture well. Plates were then immediately scanned on a flat bed laser scanner once per 24 hours for a total of 4 days. The surface area of each collagen construct was measured using ImageJ (NIH) and standardized against the baseline surface area measurement to express changes in area as a percentage of original surface area.
The gentamicin concentrations assessed were delivered in a solution contained DMEM with 2% FBS, 1% penicillin/streptomycin and either 100, 250, 500, 750 or 100 μg/ml gentamicin (Sigma-Aldrich, CAT. NO: G1397). The ASA concentrations assessed were delivered in a solution of DMEM with 2% FBS, 1% penicillin/streptomycin and either 500, 1000 or 1500 μg/ml ASA (Sigma-Aldrich, CAT. NO: A5376). […]

HTCFs [2] = test: Collagen Contraction Assay III (TGFB1-induced); settings: ASA 1000 or 1500 μg/ml, with or without gentamicin; TGFB1 2 ng/ml added at 48 hrs
Protocol: A modified delayed release fibroblast populated collagen lattice model was used to assess inhibition of TGFB1-induced collagen contraction by ASA and gentamicin. HTCFs were seeded at a density of 2.5×10^5 cells/mL within an extracellular matrix (ECM) mixture containing 400 ul of rat tail-derived type I collagen (1.8 mg/ml), 80 ul of neutralizing solution (equal parts Waymouth's media (Gibco, CAT. NO: 11220035) and 0.275M NaOH) and 20 ul of HTCF conditioned media (concentrated to 25× to obtain a 1× final concentration within the 500 ul matrix solution). The cell-collagen solution was pipetted gently to ensure homogenous distribution of HTCFs while avoiding the production of air bubbles, then 500 ul were pipetted into each well of a 24-well tray. […]
Tension was allowed to build up within the tethered matrix at 37 C and 5% CO2 for 72 hours before a sterile spatula was used to detach each collagen construct from the edges of the culture well. Plates were then immediately scanned on a flat bed laser scanner for a baseline area reading and then measured again regularly for a total of 4 days. […] The surface area of each collagen construct was measured using ImageJ (NIH) and standardized against the baseline surface area measurement to express changes in area as a percentage of original surface area. […]

HTCFs [3] = test: Collagen Contraction Assay IV (AHGF induced, ASA and gentamicin vs mitomycin C); settings: ASA 1500 μg/ml and/or gentamicin 750 μg/ml; comparator mitomycin C 0.2 mg/ml for 4 minutes
Protocol: as §2
Tension was allowed to build up within the tethered matrix at 37 C and 5% CO2 for 72 hours before a sterile spatula was used to detach each collagen construct from the edges of the culture well. Plates were then immediately scanned on a flat bed laser scanner and then periodically for a total of 4 days. The surface area of each collagen construct was measured using ImageJ (NIH) and standardized against the baseline surface area measurement to express changes in area as a percentage of original surface area.
In this modification of the assay, AHGFs are added to all culture media the collagen constructs are exposed to—from casting of the collagen constructs to the conclusion of contraction. The experimental treatment solutions—all also containing AHGFs—were added 30 minutes prior to detaching the collagen constructs from the culture wells and remained until experimental conclusion. […] DMEM w/2% FBS was added for the remainder of the experiment).

MMP9 = test: Western blot of HTCF protein lysate, MMP9; settings: ASA 100, 400, 1600 μg/ml, 48 hrs
Protocol: (§1) Cells were lysed in lysis buffer (PhosphoSafe Extraction Reagent, Novagen) containing a protease inhibitor cocktail (P2714, Sigma-Aldrich). Crude protein lysate was quantified using a Pierce BCA protein assay kit (ThermoFisher, Mississauga, ON) and 10 ug from each sample was resolved using a Novex WedgeWell 4-20% tris-glycine gel (Invitrogen). Using an iBlot Gel Transfer Device (IB1001, Invitrogen), the separated protein was transferred to a nitrocellulose membrane (1B301001, iBlot Transfer Stack, Invitrogen) which was then blocked with 5% (w/v) bovine serum albumin (Sigma-Aldrich) in Tris buffered saline (TBST) for 1 hour at room temperature. The membranes were incubated overnight at 4° C. with primary antibody diluted in TBST containing 5% BSA (w/vol). Primary antibodies used were as follows: collagen 1 (ab138492, Abcam), αSMA (ab5694, Abcam), MMP9 (ab38898, Abcam), PPARγ (sc-7273, SantaCruz Biotechnology), SMAD2/3 (ab63672, Abcam), pSMAD2/3 (ab63399, Abcam) and GAPDH (sc-47724, Santa Cruz Biotechnology, Inc.). […] Imaging and relative densiometric quantification was accomplished using a ChemiDoc MP System (Bio-Rad Laboratories, Inc.) connected to Image Lab (Version 6, Bio-Rad Laboratories, Inc.).

PPARγ = test: Western blot of HTCF protein lysate, PPARγ; settings: AHGFs; ASA 100, 400, 1600 μg/ml, 48 hrs
Protocol: as §1

CC(=O)Oc1ccccc1C(=O)O [ASA, acetylsalicylic acid]
HTCF-mediated collagen contraction (HTCFs [1]; ASA 500 μg/ml, alone or with gentamicin 100-1000 μg/ml (FIG. 8C)): no significant treatment effects found
HTCF-mediated collagen contraction (HTCFs [1]; ASA alone, 500, 1000, 1500 μg/ml, four days (FIG. 8B)): dose dependent inhibition of HTCF-mediated collagen contraction
HTCF-mediated collagen contraction before and after TGFb1 stimulus (HTCFs [2]): significantly impair HTCF-mediated contraction, at all concentrations assessed, both before and after stimulus with TGFb1
AHGF induced, HTCF-mediated collagen contraction (HTCFs [3]): significantly negate the effects of the AHGFs on HTCF-mediated collagen contraction, albeit significantly less than the current ophthalmic clinical gold standard
AHGF-induced expression of MMP9 (MMP9): significantly impaired the AHGF-induced expression
expression of PPARγ (PPARγ): significantly induce expression of PPARγ
